Measurements as given in the supplement of paper PMC11451515.

Test system: NOMO1
Experiment: cell viability relative to DMSO control; higher = less cytotoxic
Conditions: 48 h
Outline: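 Library compounds in DMSO were pin-dosed in an 11-point threefold series (47 μM to 0.79 nM) onto leukemia cells in 1536-well plates (5 μl). Plates held 500 cells/well of NOMO1 or SEM or 1000 cells/well of P12-Ichikawa, each adapted for at least four passages in each medium. Luminescence was read with CellTiter-Glo One after 48 h at 37°C. Viability means the per-plate percentage relative to DMSO wells, using cell-free wells as background.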

[1] = HPLM + 10% dialyzed FBS, 0.000781 µM
[2] = HPLM + 10% dialyzed FBS, 0.00234 µM
[3] = HPLM + 10% dialyzed FBS, 0.00702 µM
[4] = HPLM + 10% dialyzed FBS, 0.0211 µM
[5] = HPLM + 10% dialyzed FBS, 0.0632 µM
[6] = HPLM + 10% dialyzed FBS, 0.19 µM
[7] = HPLM + 10% dialyzed FBS, 0.569 µM
[8] = HPLM + 10% dialyzed FBS, 1.71 µM
[9] = HPLM + 10% dialyzed FBS, 5.12 µM
[10] = HPLM + 10% dialyzed FBS, 15.4 µM
[11] = HPLM + 10% dialyzed FBS, 46.1 µM
[12] = RPMI 5 mM glucose + 10% FBS, 0.000781 µM
[13] = RPMI 5 mM glucose + 10% FBS, 0.00234 µM
[14] = RPMI 5 mM glucose + 10% FBS, 0.00702 µM
[15] = RPMI 5 mM glucose + 10% FBS, 0.0211 µM
[16] = RPMI 5 mM glucose + 10% FBS, 0.0632 µM
[17] = RPMI 5 mM glucose + 10% FBS, 0.19 µM
[18] = RPMI 5 mM glucose + 10% FBS, 0.569 µM
[19] = RPMI 5 mM glucose + 10% FBS, 1.71 µM
[20] = RPMI 5 mM glucose + 10% FBS, 5.12 µM
[21] = RPMI 5 mM glucose + 10% FBS, 15.4 µM
[22] = RPMI 5 mM glucose + 10% FBS, 46.1 µM
[23] = RPMI 5 mM glucose + 10% dialyzed FBS, 0.000781 µM
[24] = RPMI 5 mM glucose + 10% dialyzed FBS, 0.00234 µM
[25] = RPMI 5 mM glucose + 10% dialyzed FBS, 0.00702 µM
[26] = RPMI 5 mM glucose + 10% dialyzed FBS, 0.0211 µM
[27] = RPMI 5 mM glucose + 10% dialyzed FBS, 0.0632 µM
[28] = RPMI 5 mM glucose + 10% dialyzed FBS, 0.19 µM
[29] = RPMI 5 mM glucose + 10% dialyzed FBS, 0.569 µM
[30] = RPMI 5 mM glucose + 10% dialyzed FBS, 1.71 µM
[31] = RPMI 5 mM glucose + 10% dialyzed FBS, 5.12 µM
[32] = RPMI 5 mM glucose + 10% dialyzed FBS, 15.4 µM
[33] = RPMI 5 mM glucose + 10% dialyzed FBS, 46.1 µM

| Compound | cell viability [1] [%] | cell viability [2] [%] | cell viability [3] [%] | cell viability [4] [%] | cell viability [5] [%] | cell viability [6] [%] | cell viability [7] [%] | cell viability [8] [%] | cell viability [9] [%] | cell viability [10] [%] | cell viability [11] [%] | cell viability [12] [%] | cell viability [13] [%] | cell viability [14] [%] | cell viability [15] [%] | cell viability [16] [%] | cell viability [17] [%] | cell viability [18] [%] | cell viability [19] [%] | cell viability [20] [%] | cell viability [21] [%] | cell viability [22] [%] | cell viability [23] [%] | cell viability [24] [%] | cell viability [25] [%] | cell viability [26] [%] | cell viability [27] [%] | cell viability [28] [%] | cell viability [29] [%] | cell viability [30] [%] | cell viability [31] [%] | cell viability [32] [%] | cell viability [33] [%] |
| --- | --- | --- | --- | --- | --- | --- | --- | --- | --- | --- | --- | --- | --- | --- | --- | --- | --- | --- | --- | --- | --- | --- | --- | --- | --- | --- | --- | --- | --- | --- | --- | --- | --- |
| O=C1NC(=O)/C(=C/c2ccc3nccc(-c4ccncc4)c3c2)S1 | 129 | 96.8 | 124 | 97.8 | 89.6 | 85.4 | 55.6 | 50.8 | 33.8 | 26 | 14.7 | 115 | 99.6 | 107 | 113 | 101 | 92.9 | 84.1 | 66.7 | 36.8 | 29.1 | 16 | 107 | 115 | 92 | 97.3 | 88 | 63.2 | 61 | 55.9 | 34.7 | 27.2 | 13.6 |
| ClC1=CC=C(C=C1)C(C#N)C2=C(Cl)C=C(C=C2Cl)N3\N=C/C(=O)NC3=O (stereo unspecified) | 82.4 | 101 | 99.5 | 111 | 112 | 103 | 125 | 104 | 97.8 | 102 | 107 | 100 | 93.4 | 109 | 102 | 93.1 | 94.6 | 114 | 107 | 106 | 100 | 104 | 80.1 | 92.6 | 86.5 | 95.3 | 87.1 | 110 | 99.6 | 96.7 | 94.6 | 103 | 98.4 |
| Cc1ccccc1C(=O)c1ccc(Nc2ccc(Br)cc2N)cc1Cl |  |  |  |  |  |  |  |  |  |  |  | 107 | 123 | 116 | 122 | 120 | 113 | 110 | 121 | 116 | 103 | 90.1 | 131 | 116 | 112 | 120 | 118 | 126 | 107 | 121 | 114 | 93.7 | 71.5 |
| CC1CNc2c(cccc2[S+](=O)([O-])N[C@@H](CCCNC(=N)N)C(=O)N2CC[C@@H](C)C[C@@H]2C(=O)O)C1 (stereo partly specified) | 117 | 101 | 106 | 106 | 104 | 94.9 | 106 | 114 | 101 | 112 | 123 | 98.3 | 87.9 | 99.4 | 96.9 | 103 | 98.2 | 100 | 93.3 | 96.6 | 100 | 95.1 | 86.3 | 87.7 | 101 | 107 | 97.6 | 94.3 | 101 | 110 | 99.6 | 111 | 102 |
| CC(C)OC(=O)/C1=C/N(CC(C)(C)C2=C1[NH]C3=CC=CC=C23)C(=O)C4=CC=C(F)C(=C4)F | 86.3 | 80.4 | 86 | 91.8 | 81.3 | 89.8 | 98.3 | 98 | 89.9 | 85.6 | 91.2 | 72.7 | 78.4 | 79.7 | 80.8 | 89 | 79.4 | 84.3 | 76.4 | 82.7 | 78.2 | 83.5 | 74.5 | 74.8 | 70.6 | 70.8 | 69.4 | 70.6 | 66.6 | 82 | 80.5 | 79.1 | 72.5 |
| CN[C@@H]1[C@@H](O)[C@@H](O[C@@H]2[C@@H](O)[C@H](O[C@H]3O[C@H](CN)[C@@H](O)[C@H](O)[C@H]3O)[C@@H](N)C[C@H]2NC(=O)[C@@H](O)CN)OC[C@]1(C)O | 120 | 132 | 115 | 135 | 148 | 130 | 140 | 110 | 113 | 103 | 120 |  |  |  |  |  |  |  |  |  |  |  | 130 | 115 | 110 | 127 | 112 | 132 | 116 | 107 | 99.9 | 117 | 98.6 |
| O=C(O)CCC1CCC(c2cc(F)ccc2F)([S+](=O)([O-])c2ccc(Cl)cc2)CC1 (stereo unspecified) | 98.6 | 117 | 137 | 124 | 140 | 139 | 146 | 85.2 | 30.5 | 35.4 | 34 | 122 | 115 | 125 | 124 | 117 | 146 | 126 | 64 | 25.2 | 21.7 | 23.8 | 109 | 137 | 104 | 129 | 126 | 137 | 125 | 102 | 28.5 | 33 | 28.2 |
| Nc1ncnc2c1ncn2[C@@H]1O[C@@H](CO)[C@H](O)[C@@H]1O | 94.2 | 125 | 117 | 140 | 142 | 134 | 144 | 156 | 139 | 140 | 136 |  |  |  |  |  |  |  |  |  |  |  | 122 | 121 | 122 | 127 | 135 | 136 | 133 | 135 | 127 | 155 | 137 |
